According to patent publication US9198433B2, “Substituted benzene fungicides” (E I DU PONT DE NEMOURS AND COMPANY, priority 2007, dated 2015):
Marks after values point to notes of the source that are not given here.

Key:
Format in all cases: in vivo
[1] = system: Alternaria solani; assay: Test H: tomato early blight, preventive spray on tomato seedlings, disease rating
Source text: (§1) The test compounds were first dissolved in acetone in an amount equal to 3% of the final volume and then suspended at the desired concentration (in ppm) in acetone and purified water (50/50 mix) containing 250 ppm of the surfactant Trem® 014 (polyhydric alcohol esters). The resulting test suspensions were then used in Tests A-L. Spraying a 200 ppm test suspension to the point of run-off on the test plants was the equivalent of an application rate of 500 g/ha. The test suspension was sprayed to the point of run-off on tomato seedlings. […] A dash (-) indicates no test results. All results are for 200 ppm except where followed by an “*”, which indicates 40 ppm or “**”, which indicates 50 ppm.

[2] = system: Septoria nodorum; assay: Test C: wheat glume blotch, preventive spray on wheat seedlings, disease rating
Source text: (§2) The test compounds were first dissolved in acetone in an amount equal to 3% of the final volume and then suspended at the desired concentration (in ppm) in acetone and purified water (50/50 mix) containing 250 ppm of the surfactant Trem® 014 (polyhydric alcohol esters). The resulting test suspensions were then used in Tests A-L. Spraying a 200 ppm test suspension to the point of run-off on the test plants was the equivalent of an application rate of 500 g/ha. The test suspension was sprayed to the point of run-off on wheat seedlings. […] A dash (-) indicates no test results. All results are for 200 ppm except where followed by an “*”, which indicates 40 ppm or “**”, which indicates 50 ppm.

[3] = system: Septoria tritici; assay: Test D: wheat leaf blotch, preventive spray on wheat seedlings, disease rating
Source text: The test compounds were first dissolved in acetone in an amount equal to 3% of the final volume and then suspended at the desired concentration (in ppm) in acetone and purified water (50/50 mix) containing 250 ppm of the surfactant Trem® 014 (polyhydric alcohol esters). The resulting test suspensions were then used in Tests A-L. Spraying a 200 ppm test suspension to the point of run-off on the test plants was the equivalent of an application rate of 500 g/ha. The test suspension was sprayed to the point of run-off on wheat seedlings. The following day the seedlings were inoculated with a spore suspension of Septoria tritici (the causal agent of wheat leaf blotch) and incubated in a saturated atmosphere at 24° C. for 48 h, and then moved to a growth chamber at 20° C. for 19 days, after which time disease ratings were made. […] A dash (-) indicates no test results. All results are for 200 ppm except where followed by an “*”, which indicates 40 ppm or “**”, which indicates 50 ppm.

[4] = system: Puccinia recondita f. sp. tritici; assay: Test B: wheat leaf rust, preventive spray on wheat seedlings, disease rating
Source text: as §2

[5] = system: Botrytis cinerea; assay: Test F: tomato Botrytis, preventive spray on tomato seedlings, disease rating
Source text: as §1

[6] = system: Erysiphe graminis f. sp. tritici; assay: Test A: wheat powdery mildew, preventive spray on wheat seedlings, disease rating
Source text: as §2

[7] = 200 ppm, 100 = 100% disease control, 0 = no control relative to controls
[8] = 40 ppm (*), 100 = 100% disease control, 0 = no control relative to controls

SMILES	Percentage Disease Control, Test H ([1]; 40 ppm (*))	Percentage Disease Control, Test C ([2]; 40 ppm (*))	Percentage Disease Control, Test D ([3]; 40 ppm (*))	Percentage Disease Control, Test B ([4]; 40 ppm (*))	Percentage Disease Control, Test F ([5]; 200 ppm) [%]	Percentage Disease Control, Test A ([6]; 40 ppm (*))	further results
COC(=O)NCc1cc(-c2c[nH]nn2)ccc1Cl [Cmpd 145]	–	–	–	–	–	–	Percentage Disease Control, Test H [1, 7]: 15%; Percentage Disease Control, Test C [2, 7]: 0%; Percentage Disease Control, Test D [3, 7]: 30%; Percentage Disease Control, Test B [4, 7]: 0%; Percentage Disease Control, Test F [5, 7]: 0%; Percentage Disease Control, Test A [6, 7]: 0%
COC(=O)NCc1cc(-c2cnn(Cc3ccc(C)cc3)n2)ccc1Cl [Compound 146]	–	–	–	–	–	–	Percentage Disease Control, Test H [1, 7]: 22%; Percentage Disease Control, Test C [2, 7]: 99%; Percentage Disease Control, Test D [3, 7]: 93%; Percentage Disease Control, Test B [4, 7]: 93%; Percentage Disease Control, Test F [5, 7]: 0%; Percentage Disease Control, Test A [6, 7]: 52%
COC(=O)NCc1cc(-c2ccnc(-c3ccccc3)n2)ccc1Cl [Cmpd 134]	–	–	–	–	–	–	Percentage Disease Control, Test H [1, 7]: 0%; Percentage Disease Control, Test C [2, 8]: 96* %; Percentage Disease Control, Test D [3, 7]: 87%; Percentage Disease Control, Test B [4, 7]: 84%; Percentage Disease Control, Test F [5, 7]: 0%; Percentage Disease Control, Test A [6, 7]: 0%
COC(=O)NCc1cc(-c2ccn(-c3cccc(OC(F)(F)F)c3)n2)ccc1Cl [Cmpd 68]	86* %	99* %	100* %	100* %	0	97* %	–
COC(=O)NCc1cc(-c2ccn(-c3ccc(OC)cc3)n2)ccc1Cl [Cmpd 106]	92* %	100* %	100* %	100* %	0	98* %	–
COC(=O)C(=O)c1cc(-c2ccn(-c3cccc(C(F)(F)F)c3)n2)ccc1C [Cmpd 83]	–	–	–	–	0	–	Percentage Disease Control, Test H ([1]; 200 ppm): 0%; Percentage Disease Control, Test C ([2]; 200 ppm): 0%; Percentage Disease Control, Test D ([3]; 200 ppm): 89%; Percentage Disease Control, Test B ([4]; 200 ppm): 0%; Percentage Disease Control, Test A ([6]; 200 ppm): 19%
COC(=O)NCc1cc(-c2ccn(Cc3ccc(C(F)(F)F)cc3)n2)ccc1Cl [Cmpd 63]	98* %	99* %	100* %	100* %	–	97* %	Percentage Disease Control, Test F ([5]; 40 ppm (*)): 0* %
COC(=O)NNc1cc(-c2ccn(-c3cccc(C(F)(F)F)c3)n2)ccc1Cl [Cmpd 64]	–	–	93* %	100* %	16	99* %	Percentage Disease Control, Test H ([1]; 200 ppm): 62%; Percentage Disease Control, Test C ([2]; 200 ppm): 99%
COC(=O)NCc1cc(-c2cn(-c3ccc(Cl)cc3)nn2)ccc1Cl [Cmpd 148]	–	–	–	–	–	–	Percentage Disease Control, Test H [1, 7]: 0%; Percentage Disease Control, Test C [2, 7]: 90%; Percentage Disease Control, Test D [3, 8]: 98* %; Percentage Disease Control, Test B [4, 8]: 90* %; Percentage Disease Control, Test F [5, 7]: 46%; Percentage Disease Control, Test A [6, 7]: 85%
COC(=O)NCc1cc(-c2ccn(-c3ccc(C(C)=O)cc3)n2)ccc1Cl [Cmpd 150]	–	–	–	–	–	–	Percentage Disease Control, Test H [1, 7]: 92%; Percentage Disease Control, Test C [2, 7]: 100%; Percentage Disease Control, Test D [3, 7]: 99%; Percentage Disease Control, Test B [4, 7]: 98%; Percentage Disease Control, Test F [5, 7]: 0%; Percentage Disease Control, Test A [6, 7]: 71%
COC(=O)NCc1cc(-c2ccn(-c3ccc(F)cc3)n2)ccc1Cl [Cmpd 116]	–	–	–	–	0	–	Percentage Disease Control, Test H ([1]; 200 ppm): 99%; Percentage Disease Control, Test C ([2]; 200 ppm): 100%; Percentage Disease Control, Test D ([3]; 200 ppm): 96%; Percentage Disease Control, Test B ([4]; 200 ppm): 100%; Percentage Disease Control, Test A ([6]; 200 ppm): 99%
COC(=O)NCc1cc(-c2ccn(-c3cccc(Br)c3)n2)ccc1Cl [Cmpd 112]	–	100* %	100* %	99* %	0	–	Percentage Disease Control, Test H ([1]; 200 ppm): 93%; Percentage Disease Control, Test A ([6]; 200 ppm): 88%
COC(=O)NCc1cc(-c2cnn(Cc3ccccc3)c2)ccc1Cl [Cmpd 128]	–	–	–	–	–	–	Percentage Disease Control, Test H [1, 7]: 0%; Percentage Disease Control, Test C [2, 7]: 82%; Percentage Disease Control, Test D [3, 8]: 96* %; Percentage Disease Control, Test B [4, 7]: 98%; Percentage Disease Control, Test F [5, 7]: 0%; Percentage Disease Control, Test A [6, 7]: 29%
CCCCCc1cc(-c2ccc(Cl)c(CNC(=O)OC)c2)nn1C [Cmpd 98]	–	90* %	–	98* %	0	–	Percentage Disease Control, Test H ([1]; 200 ppm): 0%; Percentage Disease Control, Test D ([3]; 200 ppm): 98%; Percentage Disease Control, Test A ([6]; 200 ppm): 91%
COC(=O)NCc1cc(-c2ccnc(-c3ccc(C)cc3)n2)ccc1Cl [Cmpd 132]	–	–	–	–	–	–	Percentage Disease Control, Test H [1, 7]: 0%; Percentage Disease Control, Test C [2, 8]: 98* %; Percentage Disease Control, Test D [3, 8]: 100* %; Percentage Disease Control, Test B [4, 8]: 95* %; Percentage Disease Control, Test F [5, 7]: 0%; Percentage Disease Control, Test A [6, 7]: 80%
COC(=O)NCc1cc(-c2ccn(Cc3ccccc3C)n2)ccc1Cl [Cmpd 70]	96* %	100* %	100* %	99* %	–	99* %	–
COC(=O)NCc1cc(-c2ccn(-c3ccccc3C(C)=O)n2)ccc1Cl [Cmpd 54]	–	99* %	99* %	100* %	–	99* %	Percentage Disease Control, Test F ([5]; 40 ppm (*)): 0* %
COC(=O)NCc1cc(-c2ccn(CCc3ccccc3)n2)ccc1Cl [Cmpd 58]	89* %	100* %	99* %	100* %	–	98* %	Percentage Disease Control, Test F ([5]; 40 ppm (*)): 0* %
COC(=O)NCc1cc(-c2ccn(-c3nc(SCc4ccccc4)ns3)n2)ccc1Cl [Cmpd 91]	–	–	–	–	0	–	Percentage Disease Control, Test H ([1]; 200 ppm): 33%; Percentage Disease Control, Test C ([2]; 200 ppm): 64%; Percentage Disease Control, Test D ([3]; 200 ppm): 97%; Percentage Disease Control, Test B ([4]; 200 ppm): 85%; Percentage Disease Control, Test A ([6]; 200 ppm): 0%
COC(=O)NCc1cc(-c2ccn(-c3ccc(C(=O)OC)cc3)n2)ccc1Cl [Cmpd 108]	–	–	98* %	–	0	–	Percentage Disease Control, Test H ([1]; 200 ppm): 28%; Percentage Disease Control, Test C ([2]; 200 ppm): 95%; Percentage Disease Control, Test B ([4]; 200 ppm): 86%; Percentage Disease Control, Test A ([6]; 200 ppm): 0%
COC(=O)NCc1cc(-c2ccn(-c3ccc(-c4ccccc4)cc3)n2)ccc1Cl [Cmpd 82]	7* %	86* %	–	0* %	–	60* %	Percentage Disease Control, Test F ([5]; 40 ppm (*)): 0* %
CCCn1nc(-c2ccc(Cl)c(CNC(=O)OC)c2)cc1C(F)(F)F [Cmpd 103]	–	–	99* %	98* %	0	99* %	Percentage Disease Control, Test C ([2]; 200 ppm): 87%
COC(=O)NCc1cc(-c2ccn(-c3ccc(OC(F)(F)F)cc3)n2)ccc1Cl [Cmpd 77]	96* %	100* %	100* %	100* %	–	99* %	–
COC(=O)NCc1cc(-c2ccn(-c3ccc(C(F)(F)F)cc3)n2)ccc1Cl [Cmpd 79]	–	100* %	99* %	99* %	–	99* %	Percentage Disease Control, Test F ([5]; 40 ppm (*)): 0* %
COC(=O)NCc1cc(-c2ccn(Cc3cccc(C)c3)n2)ccc1Cl [Cmpd 71]	84* %	100* %	100* %	100* %	–	99* %	–
CCCCn1nc(-c2ccc(Cl)c(CNC(=O)OC)c2)cc1C(F)(F)F [Cmpd 102]	–	96* %	98* %	98* %	0	98* %	–
